{"source": "patent US11554171B2", "about": "“Compounds and methods for the targeted degradation of bromodomain-containing proteins” (Arvinas Operations, Inc., priority 2015, dated 2023)", "system": "c-myc in 22RV-1 cells", "assay": "Human c-myc ELISA assay", "assay_type": "cell-based", "settings": "Homo sapiens; for Emax: 22Rv1, 18 h, read-out: Degradation of BRD4: Maximum inhibition (%) c-Myc ELISA in 22RV1 cells; for DC50: 22Rv1, read-out: Degradation of BRD4: DC50 (uM) c-Myc ELISA in 22RV1 cells", "procedure": "22RV-1 cells are seeded at 30,000 cells/well at a volume of 75 μL/well in RPMI+10% FBS media in 96-well plates and grown overnight at 37 C. Cells are dosed with compounds at 4× concentration diluted in 0.4% DMSO; compounds are serially diluted 1:3 for 8-point dose curve. 25 ul of compounds is added to cells for a final concentration starting at 300 nM-0.3 nM or 1 uM-1 nM in 0.1% DMSO and incubated for 18 hrs. Media is aspirated, cells washed 1× with PBS and aspirated. Cells are lysed in 50 ul RIPA buffer (50 mM Tris pH8, 150 mM NaCl, 1% Tx-100, 0.1% SDS, 0.5% sodium deoxycholate) supplemented with protease and phosphatase inhibitors. Plates are incubated on ice for 15 minutes then centrifuged at 4 C for 10 min at 4000 rpm. Add 50 ul of cleared lysate from 96-well assay plate into 96-well c-myc ELISA plate (Novex, Life Technologies Catalog #KH02041). Reconstitute c-myc standard with standard diluent buffer; standard curve range is 333 pg/ml-0 pg/ml, diluted 1:2 for 8-point dose curve. The rest of the assay was performed following the protocol from the c-myc ELISA kit. Data is analyzed and plotted using GraphPad Prism software. Compounds described in this application were assayed and c-myc suppression potency is listed in the following Table (A: DC50<10 nM; B: DC50 10-100 nM; C: DC50: 100-1000 nM; D: DC50>1000 nM)", "data": [{"molecule": "Cc1ncoc1-c1ccc(CNC(=O)[C@@H]2C[C@@H](O)CN2C(=O)[C@@H](NC(=O)COCCOCCCOc2ccc([C@@H](C)NC(=O)C[C@@H]3N=C(c4ccc(Cl)cc4)c4c(sc(C)c4C)-n4c(C)nnc43)cc2)C(C)(C)C)cc1", "note": "[Example 31]", "values": [{"measurement": "Emax", "result": 65, "unit": "%"}, {"measurement": "DC50", "result": "0.1 to 1", "unit": "µM"}]}, {"molecule": "Cc1sc2c(c1C)C(c1ccc(Cl)cc1)=N[C@@H](CC(=O)N[C@H]1C[C@H](Oc3ccc(CC(=O)N[C@H](C(=O)N4C[C@H](O)C[C@H]4C(=O)N[C@@H](C)c4ccc(-c5cnnn5C)cc4)C(C)(C)C)cc3)C1)c1nnc(C)n1-2", "note": "[Example 250]", "values": [{"measurement": "Emax", "result": 16.1, "unit": "%"}, {"measurement": "DC50", "result": "> 1", "unit": "µM"}]}, {"molecule": "Cc1ncsc1-c1ccc([C@H](C)NC(=O)[C@@H]2C[C@@H](O)CN2C(=O)[C@@H](NC(=O)c2cc3ccc(O[C@H](C)CNC(=O)C[C@@H]4N=C(c5ccc(Cl)cc5)c5c(sc(C)c5C)-n5c(C)nnc54)cc3o2)C(C)(C)C)cc1", "note": "[Example 211, (2S,4R)-1-[(2S)-2-[(6-{[(2R)-1-{2-[(9S)-7-(4-chlorophenyl)-4,5,13-trimethyl-3-thia-1,8,11,12-tetraazatricyclo[8.3.0.0^2,^6]trideca-2(6),4,7,10,12-pentaen-9-yl]acetamido}propan-2-yl]oxy}-1-benzofuran-2-yl)formamido]-3,3-dimethylbutanoyl]-4-hydroxy-N-[(1S)-1-[4-(4-methyl-1,3-thiazol-5-yl)phenyl]ethyl]pyrrolidine-2-carboxamide]", "values": [{"measurement": "Emax", "result": 99, "unit": "%"}, {"measurement": "DC50", "result": "< 0.01", "unit": "µM"}]}, {"molecule": "Cc1ncsc1-c1ccc(CNC(=O)[C@@H]2C[C@@H](O)CN2C(=O)[C@@H](NC(=O)COCCCOCCNC(=O)C[C@@H]2N=C(c3ccc(Cl)cc3)c3c(sc(C)c3C)-n3c(C)nnc32)C(C)(C)C)cc1", "note": "[Example 49, (2S,4R)-1-[(2S)-2-{2-[3-(2-{2-[(9S)-7-(4-chlorophenyl)-4,5,13-trimethyl-3-thia-1,8,11,12-tetraazatricyclo[8.3.0.0^2,^6]trdeca-2(6),4,7,10,12-pentaen-9-yl]acetamido}ethoxy)propoxy]acetamido}-3,3-dimethylbutanoyl]-4-hydroxy-N-{[4-(4-methyl-1,3-thiazol-5-yl)phenyl]methyl}pyrrolidine-2-carboxamide]", "values": [{"measurement": "Emax", "result": 99, "unit": "%"}, {"measurement": "DC50", "result": "< 0.01", "unit": "µM"}]}, {"molecule": "Cc1ncsc1-c1ccc([C@H](C)NC(=O)[C@@H]2C[C@@H](O)CN2C(=O)C(C(C)C)n2cc(-c3cc(F)cc(O[C@@H](C)CNC(=O)C[C@@H]4N=C(c5ccc(Cl)cc5)c5c(sc(C)c5C)-n5c(C)nnc54)c3)cn2)cc1", "note": "(some centres unmarked) [Example 208]", "values": [{"measurement": "Emax", "result": 92, "unit": "%"}, {"measurement": "DC50", "result": "< 0.01", "unit": "µM"}]}, {"molecule": "Cc1ncsc1-c1ccc([C@H](C)NC(=O)[C@@H]2C[C@@H](O)CN2C(=O)[C@@H](NC(=O)COCCCOCCOc2cccc(NC(=O)C[C@@H]3N=C(c4ccc(Cl)cc4)c4c(sc(C)c4C)-n4c(C)nnc43)c2)C(C)(C)C)cc1", "note": "[Example 129]", "values": [{"measurement": "Emax", "result": 96, "unit": "%"}, {"measurement": "DC50", "result": "< 0.01", "unit": "µM"}]}, {"molecule": "Cc1ncsc1-c1ccc([C@H](C)NC(=O)[C@@H]2C[C@@H](O)CN2C(=O)[C@@H](NC(=O)c2cc3ccc(OCCNC(=O)C[C@@H]4N=C(c5ccc(Cl)cc5)c5c(sc(C)c5C)-n5c(C)nnc54)cc3o2)C(C)(C)C)cc1", "note": "[Example 210, (2S,4R)-1-[(2S)-2-{[6-(2-{2-[(9S)-7-(4-chlorophenyl)-4,5,13-trimethyl-3-thia-1,8,11,12-tetraazatricyclo[8.3.0.0^2,^6]trideca-2(6),4,7,10,12-pentaen-9-yl]acetamido}ethoxy)-1-benzofuran-2-yl]formamido}-3,3-dimethylbutanoyl]-4-hydroxy-N-[(1S)-1-[4-(4-methyl-1,3-thiazol-5-yl)phenyl]ethyl]pyrrolidine-2-carboxamide]", "values": [{"measurement": "Emax", "result": 100, "unit": "%"}, {"measurement": "DC50", "result": "< 0.01", "unit": "µM"}]}, {"molecule": "Cc1ncsc1-c1ccc(CNC(=O)[C@@H]2C[C@@H](O)CN2C(=O)[C@@H](NC(=O)COCCCOCCCOc2ccc3c(c2)c2c(C(N)=O)cc(-c4c(C)noc4C)cc2n3Cc2ccccc2)C(C)(C)C)cc1", "note": "[Example 133, 9-benzyl-2-(dimethyl-1,2-oxazol-4-yl)-6-{3-[3-({[(2S)-1-[(2S,4R)-4-hydroxy-2-({[4-(4-methyl-1,3-thiazol-5-yl)phenyl]methyl}carbamoyl)pyrrolidin-1-yl]-3,3-dimethyl-1-oxobutan-2-yl]carbamoyl}methoxy)propoxy]propoxy}-9H-carbazole-4-carboxamide]", "values": [{"measurement": "Emax", "result": 98, "unit": "%"}, {"measurement": "DC50", "result": "0.01 to 0.1", "unit": "µM"}]}, {"molecule": "Cc1ncsc1-c1ccc([C@H](C)NC(=O)[C@@H]2C[C@@H](O)CN2C(=O)[C@H](C(C)C)n2cc(-c3cc(F)cc(O[C@H]4C[C@@H](NC(=O)C[C@@H]5N=C(c6ccc(Cl)cc6)c6c(sc(C)c6C)-n6c(C)nnc65)C4)c3)cn2)cc1", "note": "[Example 252]", "values": [{"measurement": "Emax", "result": 97.5, "unit": "%"}, {"measurement": "DC50", "result": "< 0.01", "unit": "µM"}]}, {"molecule": "Cc1ncsc1-c1ccc([C@H](C)NC(=O)[C@@H]2C[C@@H](O)CN2C(=O)[C@H](C(C)C)n2cc(-c3cc(F)cc(O[C@H]4C[C@H](NC(=O)C[C@@H]5N=C(c6ccc(Cl)cc6)c6c(sc(C)c6C)-n6c(C)nnc65)C4)c3)cn2)cc1", "note": "[Example 254]", "values": [{"measurement": "Emax", "result": 95.4, "unit": "%"}, {"measurement": "DC50", "result": "< 0.01", "unit": "µM"}]}, {"molecule": "Cc1ncsc1-c1ccc([C@H](C)NC(=O)[C@@H]2C[C@@H](O)CN2C(=O)[C@H](C(C)C)n2cc(-c3cc(F)cc(OCCNC(=O)C[C@@H]4N=C(c5ccc(Cl)cc5)c5c(sc(C)c5C)-n5c(C)nnc54)c3)cn2)cc1", "note": "[Example 224]", "values": [{"measurement": "Emax", "result": 100, "unit": "%"}, {"measurement": "DC50", "result": "< 0.01", "unit": "µM"}]}, {"molecule": "Cc1ncsc1-c1ccc([C@H](C)NC(=O)[C@@H]2C[C@@H](O)CN2C(=O)[C@H](C(C)C)n2cc(-c3ccnc(O[C@H]4C[C@@H](NC(=O)C[C@@H]5N=C(c6ccc(Cl)cc6)c6c(sc(C)c6C)-n6c(C)nnc65)C4)n3)cn2)cc1", "note": "[Example 301]", "values": [{"measurement": "Emax", "result": 95, "unit": "%"}, {"measurement": "DC50", "result": "0.01 to 0.1", "unit": "µM"}]}, {"molecule": "Cc1ncsc1-c1ccc(CNC(=O)[C@@H]2C[C@@H](O)CN2C(=O)[C@H](c2cc(OCCO[C@H]3C[C@@H](NC(=O)C[C@@H]4N=C(c5ccc(Cl)cc5)c5c(sc(C)c5C)-n5c(C)nnc54)C3)no2)C(C)C)cc1", "note": "[Example 316]", "values": [{"measurement": "Emax", "result": 71.4, "unit": "%"}, {"measurement": "DC50", "result": "0.01 to 0.1", "unit": "µM"}]}, {"molecule": "Cc1ncsc1-c1ccc(CNC(=O)[C@@H]2C[C@@H](O)CN2C(=O)[C@@H](NC(=O)COCCCOCCCOc2ccc(NC(=O)C[C@@H]3N=C(c4ccc(Br)cc4)c4c(sc(C)c4C)-n4c(C)nnc43)cc2)C(C)(C)C)cc1", "note": "[Example 62]", "values": [{"measurement": "Emax", "result": 98.5, "unit": "%"}, {"measurement": "DC50", "result": "0.01 to 0.1", "unit": "µM"}]}, {"molecule": "Cc1ncsc1-c1ccc(CNC(=O)[C@@H]2C[C@@H](O)CN2C(=O)[C@@H](NC(=O)COCCCOc2ccc(-c3cnc(NC(=O)C[C@@H]4N=C(c5ccc(Cl)cc5)c5c(sc(C)c5C)-n5c(C)nnc54)cn3)cc2)C(C)(C)C)cc1", "note": "[Example 21, (2S,4R)-1-[(2S)-2-(2-{3-[4-(5-{2-[(9S)-7-(4-chlorophenyl)-4,5,13-trimethyl-3-thia-1,8,11,12-tetraazatricyclo[8.3.0.0^2,^6]trideca-2(6),4,7,10,12-pentaen-9-yl]acetamido}pyrazin-2-yl)phenoxy]propoxy}acetamido)-3,3-dimethylbutanoyl]-4-hydroxy-N-{[4-(4-methyl-1,3-thiazol-5-yl)phenyl]methyl}pyrrolidine-2-carboxamide]", "values": [{"measurement": "Emax", "result": 91, "unit": "%"}, {"measurement": "DC50", "result": "0.01 to 0.1", "unit": "µM"}]}, {"molecule": "Cc1ncsc1-c1ccc([C@H](C)NC(=O)[C@@H]2C[C@@H](O)CN2C(=O)[C@@H](NC(=O)/C=C/c2cccc(O[C@H](C)CNC(=O)C[C@@H]3N=C(c4ccc(Cl)cc4)c4c(sc(C)c4C)-n4c(C)nnc43)c2)C(C)(C)C)cc1", "note": "[Example 159]", "values": [{"measurement": "Emax", "result": 96.5, "unit": "%"}, {"measurement": "DC50", "result": "< 0.01", "unit": "µM"}]}, {"molecule": "Cc1ncsc1-c1ccc(CNC(=O)[C@@H]2C[C@@H](O)CN2C(=O)[C@@H](NC(=O)COCCOCCOc2ccc3c(c2)c2c(C(N)=O)cc(-c4c(C)noc4C)cc2n3Cc2ccccc2)C(C)(C)C)cc1", "note": "[Example 174]", "values": [{"measurement": "Emax", "result": 96.4, "unit": "%"}, {"measurement": "DC50", "result": "0.01 to 0.1", "unit": "µM"}]}, {"molecule": "Cc1ncsc1-c1ccc(CNC(=O)[C@@H]2C[C@@H](O)CN2C(=O)[C@H](C(C)C)N2Cc3ccccc3C2=O)c(OCCOCCOCCOCCOCCOCCNC(=O)C[C@@H]2N=C(c3ccc(Cl)cc3)c3c(sc(C)c3C)-n3c(C)nnc32)c1", "note": "[Example 3]", "values": [{"measurement": "Emax", "result": 100, "unit": "%"}, {"measurement": "DC50", "result": "0.1 to 1", "unit": "µM"}]}, {"molecule": "Cc1sc2c(c1C)C(c1ccc(Cl)cc1)=N[C@@H](CC(=O)N[C@H]1C[C@@H](Oc3ccc(OCC(=O)N[C@H](C(=O)N4C[C@H](O)C[C@H]4C(=O)N[C@@H](C)c4ccc(-c5nccn5C)cc4)C(C)(C)C)cn3)C1)c1nnc(C)n1-2", "note": "[Example 260]", "values": [{"measurement": "Emax", "result": 13, "unit": "%"}, {"measurement": "DC50", "result": "> 1", "unit": "µM"}]}, {"molecule": "Cc1ncsc1-c1ccc([C@H](C)NC(=O)[C@@H]2C[C@@H](O)CN2C(=O)[C@@H](C(C)C)n2cc(-c3cc(F)cc(O[C@H]4C[C@@H](NC(=O)C[C@@H]5N=C(c6ccc(Cl)cc6)c6c(sc(C)c6C)-n6c(C)nnc65)C4)c3)cn2)cc1", "note": "[Example 246]", "values": [{"measurement": "Emax", "result": 83, "unit": "%"}, {"measurement": "DC50", "result": "0.1 to 1", "unit": "µM"}]}, {"molecule": "Cc1ncoc1-c1ccc([C@H](C)NC(=O)[C@@H]2C[C@@H](O)CN2C(=O)C(C(C)C)n2cc(-c3cccc(O[C@H]4C[C@@H](NC(=O)C[C@@H]5N=C(c6ccc(Cl)cc6)c6c(sc(C)c6C)-n6c(C)nnc65)C4)c3)cn2)cc1", "note": "(some centres unmarked) [Example 286]", "values": [{"measurement": "Emax", "result": 93, "unit": "%"}, {"measurement": "DC50", "result": "0.01 to 0.1", "unit": "µM"}]}, {"molecule": "Cc1ncsc1-c1ccc(CNC(=O)[C@@H]2C[C@@H](O)CN2C(=O)[C@@H](NC(=O)COCCCCOc2cccc(NC(=O)C[C@@H]3N=C(c4ccc(Cl)cc4)c4c(sc(C)c4C)-n4c(C)nnc43)c2)C(C)(C)C)cc1", "note": "[Example 126]", "values": [{"measurement": "Emax", "result": 99, "unit": "%"}, {"measurement": "DC50", "result": "< 0.01", "unit": "µM"}]}]}
